The numbers were not newly measured in US10434198B2, “Radiopharmaceutical solutions with advantageous properties” (Sciencons AS, priority 2015, dated 2019), which cites them from elsewhere.

One data set concerns MDA-MB-231 (SA). The note with it: 250 kBq/kg (3.6×10^11 ^223Ra atoms), Suominen et al. 2013.
For data set [1] the following is noted: 10 minutes after injection.

SMILES strings stand for the structures.

In the case of `[Cl][223Ra][Cl]` [^223Ra, radium-223 dichloride], the survival advantage in the data set with MDA-MB-231 (SA) was 43%.

As for `[Ra]` [radium], the “reduction of radium in blood” value in data set [1] was 88%.
